Assay results taken from patent US11203598B2, “Compounds for repressing cancer cell growth” (Institute For Cancer Research, priority 2018, dated 2021).

How the values were obtained:
[1] = tested on: Noxa in 8226 bortezomib resistant multiple myeloma cell line; experiment: Western blot of Noxa; assay type: cell-based; conditions: 25 μM Analog 4, 100 μM Analog 11
Method: Referring to FIG. 20 (panel C), 1×10^6 cells/well were seeded in a 12-well plate. 8226 parental and resistant multiple myeloma cell lines were treated with 100 μM CB002, 25 μM Analog 4, or 100 μM Analog 11.

DLD-1 cells = experiment: colony formation assay; assay type: cell-based, human; conditions: 50 μM for 24 hours, then 15 days drug-free
Method: (§1) Cells were seeded in 6-well plates at a density of 500 cells per well. Cells were treated with CB002 small molecule for 24 hours. Then, cells were cultured in drug-free complete media for 15 days. During the course of 15 days, the media was changed every 2-3 days. At the end of the two weeks, media was removed, wells were washed twice with Dulbecco's phosphate buffered saline (PBS) and the colonies were fixed and stained with 10% methanol and 0.25% crystal violet (Sigma-Aldrich) for 30 minutes. Wells were then carefully washed with distilled and deionized water and allowed to dry.
(§2) To further validate CB002 as a candidate therapeutic, its capability to affect cell growth was determined by analyzing cancer cell colony formation. Colony formation assays are widely used to determine the ability of a single cell to proliferate and form a colony in culture. This method offers the advantage of elucidating the sensitivity of cells towards cytotoxic agents in a long-term assay that may mimic the response seen in mouse models. […] Referring to FIG. 3, cells were treated with 50 μM of CB002 for a period of 24 hours, at which point media was replaced with complete media for a period of 15 days. Images are from one of three replicates.

SW480 cells = experiment: colony formation assay; assay type: cell-based, human; conditions: 50 μM for 24 hours, then 15 days drug-free
Method: as §1, §2

[2] = tested on: p73 DLD-1 stable knockdown cells; experiment: colony formation assay; assay type: cell-based, human; conditions: 50 μM for 24 hours, then 15 days drug-free
Method: as §1, §2

[3] = molecular target: T1, endogenous R175H p53 in RXF393 renal cancer cells (Homo sapiens, UniProt P04637, R175H); experiment: Western blot of mutant p53; assay type: cell-based
T1 construct: RXF393 renal cancer cells that endogenously express R175H p53; endogenous in cells; host or cells: RXF393 renal cancer cells
Method: After treatment, cells were harvested by trypsinization, washed with PBS, and lysed with RIPA buffer (Sigma-Aldrich) for 30 minutes to 1 hour at 4° C. Protein lysates were spun down and supernatant was collected. Protein quantification was performed using a Pierce™ BCA Protein Assay Kit (Thermo Fisher Scientific). 1×NuPAGE® LDS sample buffer (Thermo Fisher Scientific) and 2-Mercaptoethanol as the reducing agent (Sigma-Aldrich) were added to protein lysates, followed by boiling for 15 minutes at 95° C. Equal total protein amounts samples were loaded into NuPAGE™ Novex™ 4-12% Bis-Tris Protein Gels (1.5 mm, Thermo Fisher Scientific) and gel eletrophoresis was performed with NuPAGE™ MES SDS Running Buffer. Proteins were transferred onto an Immobilon-P membrane (PVDF, EMD Millipore) using a Bio-Rad system with a 10% Tris-Glycine and 10% methanol transfer buffer diluted in distilled and deionized water. After transfer, membranes were blocked with 10% milk in TBST solution and then incubated overnight with primary antibody, washed with TBST and incubated with secondary antibody for 1 hour. Incubations were performed in 5% milk in TBST solution. Signal was detected by using a chemiluminescent detection kit, followed by autoradiography. […]

[4] = molecular target: T2, mutant p53 in DLD-1 cells (Homo sapiens, UniProt P04637, S241F); experiment: cycloheximide chase assay; assay type: cell-based; conditions: 24 hours treatment, then 100 μg/mL cycloheximide, 0-10 hours
T2 construct: endogenous in cells; host or cells: DLD-1 colorectal cancer cells
Method: (§3) As mutant p53 can acquire a gain-of-function activity, targeting mutant p53 for degradation has been explored as a therapeutic strategy. To investigate the capability of CB002 to impact on mutant p53 protein expression, Western blot analysis was used. […] To confirm these findings, a cycloheximide chase assay was performed. Cells were treated with vehicle control or CB002 for a period of 24 hours. Subsequently, 100 μg/mL cycloheximide was added to the wells and protein lysates were collected at different time points between 0-10 hours. […] Referring to FIG. 6, experiments with SW480 cells (Panels A and B) and analysis of DLD-1 colorectal cancer cells (Panel C) are shown. Cells were treated for a 24 hour period with DMSO, CB002 or positive control followed by 100 μg/mL of cycloheximide addition, and protein stability was evaluated in a time course ranging from 0-10 hours. Histone deacetylase inhibitor, SAHA and Hsp90 inhibitor Geldanamycin (1 μM GA) were used as positive controls.

[5] = molecular target: T3, mutant p53 in SW480 cells (Homo sapiens, UniProt P04637, P309S/R273H); experiment: cycloheximide chase assay; assay type: cell-based; conditions: 24 hours treatment, then 100 μg/mL cycloheximide, 0-10 hours
T3 construct: endogenous in cells; host or cells: SW480 colorectal cancer cells
Method: as §3

[6] = molecular target: T4, R175H mutant p53 in HCT116 R175H p53 cells (Homo sapiens, UniProt P04637, R175H); experiment: cycloheximide chase assay; assay type: cell-based; conditions: 100 μM, 24 hours, then cycloheximide
T4 construct: V5 (only from the vector name pLenti6/V5); host or cells: HCT116 p53-/- cells, lentivirus infection, blasticidin-selected pooled clones
Method: as §3
Referring to FIG. 7, CB002 reduced the protein expression of the exogenous R175H mutant in HCT116 p53-null cells and not the HCT116 wild-type p53 cells (Panel A). HCT116 R175H p53 cells were treated for 24 hours with DMSO or CB002 followed by 100 μg/mL cycloheximide addition. Protein stability was evaluated from 0-10 hours (Panel B). […]

Structure (SMILES): Cn1c(=O)c2c(nc(Nc3ccccc3)n2C)n(C)c1=O [Analog 11, 8-anilino-1,3,7-trimethyl-3,7-dihydro-1Hpurine-2,6-dione]
- Noxa expression [1]: able to induce Noxa expression

Structure (SMILES): Cn1c(=O)c2[nH]c(Nc3ccccc3)nc2n(C)c1=O [CB002, 8-anilino-1,3-dimethyl-3,7-dihydro-1H-purine-2,6-dione]
- colony formation (DLD-1 cells): significantly decreases colony formation
- colony formation (SW480 cells): significantly decreases colony formation
- colony formation [2]: significantly decreases colony formation
- mutant p53 degradation, with Ganetespib ([3]; 96 μM CB002 and/or 0.1 μM Ganetespib, 16 hours): enhanced CB002-mediated mutant p53 degradation
- R175H p53 mutant expression ([3]; 100 and 150 μM, 16 and 24 hours): decrease R175H p53 mutant expression
- mutant p53 stability [4]: did not affect mutant p53 stability
- mutant p53 stability [5]: did not affect mutant p53 stability
- stability of mutant p53 [6]: decreased the stability of mutant p53
